Assay results from patent US7018989B2, “Chemical compounds” (University College Cardiff Consultants, LTD, priority 1995, dated 2006).
Read-outs that look alike come from different tables or passages of the source.

How the values were obtained:
III-B strain of HIV-1 = test: microbe, parasite or virus in culture; type: cell-based
Experimental: (§1) C8166 cells. Cells were grown in RPMI 1640 with 10% calf serum. 4×10^4 cells per microtiter plate well were mixed with 5-fold dilutions of compound prior to addition of 10 CCID50 units of III-B strain of HIV-1 and incubated for 5–7 days (Betbeder et al. Antiviral Chem. Chemother. 1, 241–247, 1990). Formation of syncytia was examined from 2 days post-infection. Culture fluid was collected at 5–7 days and gp120 antigen production measured by ELISA (Mahmood and Hay, J. Immunol. Meth., 151, 9–13, 1992). […] Cell viability of infected and uninfected cells were assessed by the MTT-Formazen method (Pauwels et al. J. Virol. Meth. 20, 309–321, 1988).
(§2) Each assay was carried out in duplicate, on at least two separate occasions, and data quoted are the average of each separate assay.

C8166 cells = test: Toxicity in C8166 cells (MTT-Formazen); type: cell-based; details: Table 3
Experimental: as §1, §2

HIV-1 [1] = test: microbe, parasite or virus in culture; details: read-out: HIV1 CEM: EC50 for inhibition of HIV-1 in CEM cells
How it was run: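 Infection used 100 CCID50 per mL on 5×10^5 cells/mL, followed by exposure to serial compound dilutions. Read-out: microscopic giant cell scoring after 4 days (CEM); trypan blue viable cell count after 5 days (MT-4).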

HIV-2 [2] = test: Inhibition of HIV-2 in CEM cells (giant cell formation); type: cell-based
How it was run: (§3)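 Trypan blue staining of MT-4 cultures on day 5 gave viable cell numbers; CEM cultures were checked microscopically for giant cells on day 4. Both cell types were infected at 100 CCID50/mL (5×10^5 cells/mL) and incubated with compound dilutions.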

HIV-2 [3] = test: Inhibition of HIV-2 in CEM/TK- cells; type: cell-based
How it was run: as §3

CEM cells = test: Toxicity to CEM cells; type: cell-based, human; details: Table 6; mean of two or more repeat experiments
Experimental: (§4) Cells were infected with HIV-1 as previously described [Balzarini et al. AIDS (1991), 5, 21–28]. Briefly, 5×10^5 cells per milliliter were infected with HIV-1 or HIV-2 at 100 CCID50 (50% cell culture infective dose) per milliliter of cell suspension. Then 100 μL of the infected cell suspension was transferred to microtiter plate wells and mixed with 100 μL of the appropriate dilutions of the test compounds. After 4 days giant cell formation was recorded microscopically in the HIV-infected cell cultures [CEM], and after 5 days the number of viable cells was determined by trypan blue staining of the HIV-infected cell cultures [MT4].
(§5) The data columns are, in order: • HIV1 MT4: EC50 in μM for inhibition of HIV-1 in MT4 cells. • HIV2 MT4: EC50 in μM for inhibition of HIV-2 in MT4 cells. • CC50 MT4: CC50 in μM for toxicity to MT-4 cells. • HIV1 CEM: EC50 in μM for inhibition of HIV-1 in CEM cells. • HIV2 CEM: EC50 in μM for inhibition of HIV-2 in CEM cells. • HIV2 CEM-TK-: EC50 in μM for inhibition of HIV-2 in CEM/TK^− cells. • CC50 CEM: CC50 in μM for toxicity to CEM cells. • EC50 MSV: EC50 in μM for inhibition of MSV • MCC MSV: Minimum cytotoxic concentration in MSV assay

HIV-1 [4] = test: Inhibition of HIV-1 in MT4 cells; type: cell-based; details: MT4 cells, HIV-1; read-out: HIV1 MT4: EC50 for inhibition of HIV-1 in MT4 cells
Experimental: as §4, §5

HIV-2 [5] = test: Inhibition of HIV-2 in MT4 cells; type: cell-based; details: MT4 cells, HIV-2; read-out: HIV2 MT4: EC50 for inhibition of HIV-2 in MT4 cells
Experimental: as §4, §5

MT-4 cells = test: Toxicity to MT-4 cells; type: cell-based, human; details: MT-4 cells; read-out: CC50 MT4: CC50 for toxicity to MT-4 cells
Experimental: as §4, §5

MSV = test: Inhibition of MSV (in vitro); type: cell-based, Moloney Sarcoma Virus; details: Table 6
Description: as §5

[6] = Minimum cytotoxic concentration in MSV assay; type: cell-based; details: Table 6
Description: as §5, with “CEM/TK^-” for “CEM/TK^−”, “[…]:” for “MSV • MCC MSV:”

[7] = HIV1 in C8166 cells, Table 3, read-out: Activity EC50
[8] = Table 6, mean of two or more repeat experiments
[9] = HIV2, Table 2, read-out: EC50 CEM TK^−
[10] = Table 6, mean of two or more repeat experiments, read-out: HIV2 CEM: EC50 for inhibition of HIV-2 in CEM cells
[11] = Table 6, mean of two or more repeat experiments, read-out: HIV2 CEM-TK-: EC50 for inhibition of HIV-2 in CEM/TK^− cells
[12] = CEM cells, HIV-2, read-out: HIV2 CEM: EC50 for inhibition of HIV-2 in CEM cells
[13] = CEM/TK- cells, HIV-2, read-out: HIV2 CEM-TK-: EC50 for inhibition of HIV-2 in CEM/TK- cells

| SMILES | EC50 (III-B strain of HIV-1; HIV1 in C8166, Table 2, read-out: EC50 C8166) [µM] | EC50 (III-B strain of HIV-1; [7]) [µM] | CC50 (C8166 cells) [µM] | EC50 (HIV-1 [1]; [8]) [µM] | EC50 (HIV-2 [2]; [9]) [µM] | EC50 (HIV-2 [2]; [10]) [µM] | EC50 (HIV-2 [3]; [9]) [µM] | EC50 (HIV-2 [3]; [11]) [µM] | Selectivity CC50/EC50 × 10^3 (III-B strain of HIV-1) | CC50 (CEM cells) [µM] | EC50 (HIV-1 [4]) [µM] | EC50 (HIV-2 [5]) [µM] | CC50 (MT-4 cells) [µM] | EC50 (HIV-1 [1]; CEM cells, HIV-1) [µM] | EC50 (HIV-2 [2]; [12]) [µM] | EC50 (HIV-2 [3]; [13]) [µM] | EC50 (MSV) [µM] | MCC MSV: Minimum cytotoxic concentration in MSV assay [6] |
| --- | --- | --- | --- | --- | --- | --- | --- | --- | --- | --- | --- | --- | --- | --- | --- | --- | --- | --- |
| Cc1cn(C2C=CC(COP(=O)(NC(C)C(=O)OCc3ccccc3)Oc3ccccc3)O2)c(=O)[nH]c1=O (stereo not drawn) [Compound 730, 2′,3′-dideoxy-2′,3′-didehydrothymidine-5′-(phenyl N-benzyloxyalaninyl) phosphoramidate] | 0.0008 | 0.0008 | 400 | 0.016 | 0.016 | 0.016 | 0.06 | 0.06 |  |  |  |  |  |  |  |  |  |  |
| Cc1cn(C2C=CC(COP(=O)(Oc3ccc(Br)cc3Br)N(C)C(C)C(=O)O)O2)c(=O)[nH]c1=O (stereo not drawn) [Compound 776, 2′,3′-dideoxy-2′,3′-didehydrothymidine-5′-(2,4-dibromophenyl N-methylalaninyl) phosphoramidate] |  | 0.0008 | 100 | 0.04 |  | 0.055 |  | 0.025 | 125 × 10^3 | 16 |  |  |  |  |  |  |  |  |
| COC(=O)[C@H](C)NP(=O)(OCC1OC(n2cc(C)c(=O)[nH]c2=O)CC1N=[N+]=[N-])Oc1cc(Cl)cc(Cl)c1 (stereo partly drawn) [Compound 550, 3′-Deoxy-3′-β-azidothymidine 5′-(3,5-dichlorophenylmethoxylalaninyl) phosphoramidate] |  |  |  |  |  |  |  |  |  |  | 0.5 | 1 | 98 | 1.4 | 3 | 12 |  |  |
| Cc1cn([C@H]2C=C[C@@H](COP(=O)(NC(Cc3ccccc3)C(=O)OC(C)(C)C)Oc3ccccc3)O2)c(=O)[nH]c1=O (stereo partly drawn) [Compound 878, 2′,3′-dideoxy-2′,3′-didehydrothymidine-5′-(phenyl N-tert-butylphenylalaninyl) phosphoramidate] |  | 0.16 | 150 | 2 |  | 2 |  | 0.65 | 0.9 × 10^3 | 80 |  |  |  |  |  |  |  |  |
| COC(=O)[C@H](C)NP(=O)(OCC1OC(n2cc(C)c(=O)[nH]c2=O)CC1N=[N+]=[N-])Oc1ccccc1 (stereo partly drawn) [Compound 462, 3′-Deoxy-3′-β-azidothymidine 5′-(phenylmethoxylalaninyl) phosphoramidate] |  |  |  |  |  |  |  |  |  |  | 33 | 11 | 121 | 27.5 | 40 | 30 |  |  |
| Cc1cn(C2C=CC(COP(=O)(NC(Cc3ccccc3)C(=O)OCc3ccccc3)Oc3ccccc3)O2)c(=O)[nH]c1=O (stereo not drawn) [Compound 877, 2′,3′-dideoxy-2′,3′-didehydrothymidine-5′-(phenyl N-methoxyglycinyl) phosphoramidate] |  | 0.0003 | 80 | 0.6 |  | 0.6 |  | 0.24 | 267 × 10^3 | 44 |  |  |  |  |  |  |  |  |
| Cc1cn(C2C=CC(COP(=O)(NC(C)C(=O)OCc3ccccc3)Oc3ccc(Br)cc3Br)O2)c(=O)[nH]c1=O (stereo not drawn) [Compound 868, 2′,3′-dideoxy-2′, 3′-didehydrothymidine-5′-(2,4-dibromophenyl N-benzylalaninyl) phosphoramidate] |  | 0.0032 | 500 | 0.2 |  | 0.2 |  | 0.2 | 156 × 10^3 | 50 |  |  |  |  |  |  |  |  |
| Cc1cn([C@H]2C=C[C@@H](COP(=O)(NC(C)C(=O)OC(C)(C)C)Oc3ccccc3)O2)c(=O)[nH]c1=O (stereo partly drawn) [Compound 893, 2′,3′-dideoxy-2′,3′-didehydrothymidine 5′-(phenyl N-tButyloxyalaninyl) phosphoramidate] |  | 0.2 | > 1000 | 0.85 |  | 1.1 |  | 0.74 | >5.0 × 10^3 | ≥ 250 |  |  |  |  |  |  |  |  |
| CCCCCCOC(=O)[C@H](C)NP(=O)(OCC1C=CC(n2cc(C)c(=O)[nH]c2=O)O1)Oc1ccccc1 (stereo partly drawn) [Compound 862, 2′,3′-dideoxy-2′,3′-didehydrothymidine 5′-(phenyl N-hexyloxyalaninyl) phosphoramidate] |  | 0.0012 | 500 | 0.06 |  | 0.055 |  | 0.033 | 417 × 10^3 | 48 |  |  |  |  |  |  |  |  |
| Cc1cn(C2C=CC(COP(=O)(N[C@@H](C)C(=O)OC3CCCCC3)Oc3ccccc3)O2)c(=O)[nH]c1=O (stereo partly drawn) [Compound 892, 2′,3′-dideoxy-2′,3′-didehydrothymidine 5′-(phenyl N-cyclohexyloxyalaninyl) phosphoramidate] |  | 0.0016 | 500 | 0.065 |  | 0.075 |  | 0.09 | 312 × 10^3 | 51.4 |  |  |  |  |  |  |  |  |
| Cc1cn(C2C=CC(COP(=O)(O)NC(CCC(=O)O)C(=O)O)O2)c(=O)[nH]c1=O (stereo not drawn) [Compound 1083] |  |  |  | 8.5 |  | 5.5 |  | > 250 |  | ≥ 250 |  |  |  |  |  |  | 54.6 | >100 |
| COC(=O)C(OP(=O)(OCC1C=CC(n2cc(C)c(=O)[nH]c2=O)O1)Oc1ccccc1)c1ccccc1 (stereo not drawn) [Compound 982] |  |  |  | 1.7 |  | 0.65 |  | 15 |  | 94 |  |  |  |  |  |  | 14 | >100 |
| CCOC(=O)CN(C)P(=O)(OC[C@@H]1C=C[C@H](n2cc(C)c(=O)[nH]c2=O)O1)Oc1ccccc1 (stereo partly drawn) [Compound 1133, 2′,3′-dideoxy-2′,3′-didehydrothymidine 5′-(phenylethoxysarcosinyl phosphate)] |  |  |  | 75 |  | 87.5 |  | > 250 |  | ≥ 250 |  |  |  |  |  |  | > 100 | >100 |
| COC(=O)C(C)NP(=O)(OCC1C=CC(n2cc(C)c(=O)[nH]c2=O)O1)Oc1ccc(F)cc1 (stereo not drawn) [Compound 327, 2′,3′-dideoxy-2′,3′-didehydrothymidine 5′-(p-fluorophenylmethoxyalaninyl) phosphoramidate] |  | 0.0032 | 200 |  |  |  |  |  | 62.5 × 10^3 |  |  |  |  |  |  |  |  |  |
